Experimental data published in patent US5284847A, “Thieno pyrazine diones, their preparation and use” (Novo Nordisk A/S, priority 1991, dated 1994).

Tests used:
[1] = molecular target: T1, glycine site of the NMDA receptor complex (Rattus norvegicus, UniProt P35439); test: In vitro [3H]-Glycine Binding to Rat Brain Membranes (Test 1); set-up: species or system rat (male Wistar); details: rat forebrain membranes, 4° C., 30 min, read-out: IC50, displacement of 50% of the specific binding of [3H]-glycine
T1 construct: Crude synaptic (P2) membranes are prepared from rat forebrains freshly dissected from male Wistar rats; from tissue; host or cells: forebrain of male Wistar rats, crude synaptic (P2) membranes, washed with Triton X-100
Protocol: The compounds according to the invention were tested as regards the affinity for one or more of the different types of excitatory amino acid receptors and studied in simple radioligand binding experiments. In essence, the method involves incubation of a particular selected radiolabelled ligand and the particular specific substance to be investigated with brain homogenates which contain the receptor. Measurement of receptor occupancy is made by determination of the specific radioactivity bound to the homogenate.
The glycine site binding activity of these compounds of the present invention can be illustrated by determining their capability for displacing radioactively labelled glycine from the glycine site.
The displacement activity of the compounds may be shown by determining the IC50 value which represents the concentration (μM) which causes a displacement of 50% of the specific binding of [^3 H)-glycine.
In vitro [^3 H]-Glycine Binding to Rat Brain Membranes (Test 1)
The membrane preparation and assay of specific [^3 H]-glycine binding is based upon methodology described by Haring et al. (1991) J. Neurochem. 57, 323-332 and Yoneda et al. (1991) J. Neurochem. 55, 237-244.
All steps are performed at 4° C. Buffers are prepared fresh each week from distilled, deionized water and filtered through sterile 0.2 μm membranes to eliminate artifacts due to microbial contamination. Crude synaptic (P2) membranes are prepared from rat forebrains freshly dissected from male Wistar rats and washed 4 times with low ionic strength buffer.,On the day of the assay these preparations are additionally washed with buffer containing a low concentration (0.08% g/g) of Triton X-100, and then twice more in the absence of this detergent. The procedure is aimed at the disruption of synaptic membrane vesicles and removal of endogenous amino acids.
Specific radioligand binding is measured by incubating membranes (400-600 μg/ml of protein) with […] [^3 H]-glycine in the presence or absence of 1mM of unlabelled glycine at 4° C. for 30 min. Free and bound ligand are separated by centrifugation. Each pellet is rinsed 2X and bound radioactivity measured by liquid scintillation counting. Test substances are substituted for unlabelled glycine in the assay.

[2] = system: convulsions induced by i.c.v. infusion of NMDA; test: Convulsions induced by i.c.v. infusion of NMDA (Test 2), time to onset of clonic seizures; format: in vivo, mouse (male NMRI); details: i.c.v. co-infusion with NMDA, mice
Protocol: The glycine antagonists are co-infused with NMDA and their anticonvulsive effect is measured by determining a) the TVSO value which represents the dose (μg/kg) of the glycine antagonist that has to be infused per minute in order to increase time to onset of clonic seizures by 50%, b) the ED50 value which represents the dose (μg/kg) of the glycine antagonist that has to be infused per minute in order to protect 50% of the animals against clonic seizures for 150 seconds after the start of i.c.v. infusion.
Convulsions induced by i.c.v. infusion of NKDA (Test 2 & 3)
58.84 μg/ml ([…] in 2.5 μl) of NMDA (Sigma) dissolved in 0.9% NaCl is co-infused i.c.v. with a glycine antagonist at a speed of 5 μl/min. Infusion is performed through a cannula placed 1 mm posterior and 1 mm lateral to the Bregma point. The cannula is injected […] into the skull of male NMRI mice weighing 25 g (range 23-27 g). Placement and length of the cannula into the skull is fixed by a plate positioned 4.3 mm from the point of the cannula. The infusion is stopped after the appearance of clonic seizures in all extremities or 150 seconds after the start time of the infusion. At least 5 doses of each glycine antagonist are tested using 8 mice per dose.

SMILES | IC50 [1] [nM] | TV50, dose infused per minute to increase time to onset of clonic seizures by 50% [2] [mg/kg]
Cc1csc2[nH]c(=O)c(=O)[nH]c12 [Example 2, 7-Methylthieno(2,3-b)pyrazine-2,3(1H,4H)-dione] | 1000 | 0.007
O=c1[nH]c2scc(C3CC3)c2[nH]c1=O [Example 25, 7-Cyclopropylthieno(2,3-b]pyrazine-2,3(1H,4H)-dione] | 850 | 0.076
O=c1[nH]c2scc(Br)c2[nH]c1=O [Example 38, 7-Bromothieno(2,3-b)pyrazine-2,3(1H,4H)-dione] | 180 | 0.0348

The next lines start with results.

IC50 [1] [nM] | SMILES | TV50, dose infused per minute to increase time to onset of clonic seizures by 50% [2] [mg/kg]
1270 | Cc1sc2[nH]c(=O)c(=O)[nH]c2c1C#N [Example 6, 7-Cyano-6-methylthieno[2,3-b)pyrazine-2,3(1H,4H)-dione] | 0.044
180 | CCCc1c(Cl)sc2[nH]c(=O)c(=O)[nH]c12 [Example 10, 6-Chloro-7-propylthieno[2,3-b)pyrazine-2,3(1H,4H)-dione] | 0.0094
